Laboratory results reported in US10138227B2, “Heteroaryl substituted pyridines and methods of use” (AbbVie S.à.r.l., priority 2016, dated 2018).

Target: T1, CFTR ΔF508 mutant (Homo sapiens, UniProt P13569, DEL508-508)
T1 construct: expressed in transfected cells; host or cells: CFBE41o- cells transduced with adenoviral vectors
Assay: YFP-halide influx assay for the CFTR-ΔF508 mutation
Type: cell-based
Settings: CFBE41o- cells expressing CFTR ΔF508 and YFP reporter, forskolin 10.67 μM; for EC50: (1-F/F0) vs concentration
Description: The YFP halide influx assay measured the functionality of the cystic fibrosis Transmembrane Conductance regulator (CFTR) channels in the cystic fibrosis bronchial epithelium cell line CFBE41o-. The assay was used to evaluate the capacity of compounds to increase the open probability of existing CFTR channels in the membrane. It makes use of the observation that the yellow fluorescent protein (YFP) variant YFP H148Q, I152L, F47L has its fluorescence substantially quenched by halide ions like Cl^− and I^− (Galietta, L. J. V., Haggie, P. M., Verkman, A. S., 2001. Green fluorescent protein-based halide indicators with improved chloride and iodide affinities. FEBS Lett. 499, 220-224. doi:10.1016/S0014-5793(01)02561-3; Nagai, T., Ibata, K., Park, E. S., Kubota, M., Mikoshiba, K., Miyawaki, A., 2002. A variant of yellow fluorescent protein with fast and efficient maturation for cell-biological applications. Nat. Biotechnol. 20, 87-90. doi:10.1038/nbt0102-87).
For this purpose, CFBE410-cells were seeded in 384 well plates (3000 CFBE cells/well). One day after seeding, the CFBE cells were transduced with adenoviral vectors that direct the expression of the CFTR ΔF508 mutant and of the YFP reporter. Cells were incubated at 27° C., 5% CO2 for 24 hours so as to allow for the proper folding and migration to the membrane of the CFTR channel or treated with a CFTR modulator during 24 hours at 37° C.
The I-induced quenching of fluorescence was recorded on an immediately after injection of iodide for 2 minutes on an FDSS/μCell (Hamamatsu). The capacity of a compound to increase the channel opening was directly correlated with the decrease in fluorescence, and was expressed as (1-(fluorescence after 36 seconds (F)/fluorescence before injection (F0))) and an EC50 was derived from a (1-F/F0) vs compound concentration plot.

T1 sequence (P13569 with tags, fused parts or gaps DEL508-508): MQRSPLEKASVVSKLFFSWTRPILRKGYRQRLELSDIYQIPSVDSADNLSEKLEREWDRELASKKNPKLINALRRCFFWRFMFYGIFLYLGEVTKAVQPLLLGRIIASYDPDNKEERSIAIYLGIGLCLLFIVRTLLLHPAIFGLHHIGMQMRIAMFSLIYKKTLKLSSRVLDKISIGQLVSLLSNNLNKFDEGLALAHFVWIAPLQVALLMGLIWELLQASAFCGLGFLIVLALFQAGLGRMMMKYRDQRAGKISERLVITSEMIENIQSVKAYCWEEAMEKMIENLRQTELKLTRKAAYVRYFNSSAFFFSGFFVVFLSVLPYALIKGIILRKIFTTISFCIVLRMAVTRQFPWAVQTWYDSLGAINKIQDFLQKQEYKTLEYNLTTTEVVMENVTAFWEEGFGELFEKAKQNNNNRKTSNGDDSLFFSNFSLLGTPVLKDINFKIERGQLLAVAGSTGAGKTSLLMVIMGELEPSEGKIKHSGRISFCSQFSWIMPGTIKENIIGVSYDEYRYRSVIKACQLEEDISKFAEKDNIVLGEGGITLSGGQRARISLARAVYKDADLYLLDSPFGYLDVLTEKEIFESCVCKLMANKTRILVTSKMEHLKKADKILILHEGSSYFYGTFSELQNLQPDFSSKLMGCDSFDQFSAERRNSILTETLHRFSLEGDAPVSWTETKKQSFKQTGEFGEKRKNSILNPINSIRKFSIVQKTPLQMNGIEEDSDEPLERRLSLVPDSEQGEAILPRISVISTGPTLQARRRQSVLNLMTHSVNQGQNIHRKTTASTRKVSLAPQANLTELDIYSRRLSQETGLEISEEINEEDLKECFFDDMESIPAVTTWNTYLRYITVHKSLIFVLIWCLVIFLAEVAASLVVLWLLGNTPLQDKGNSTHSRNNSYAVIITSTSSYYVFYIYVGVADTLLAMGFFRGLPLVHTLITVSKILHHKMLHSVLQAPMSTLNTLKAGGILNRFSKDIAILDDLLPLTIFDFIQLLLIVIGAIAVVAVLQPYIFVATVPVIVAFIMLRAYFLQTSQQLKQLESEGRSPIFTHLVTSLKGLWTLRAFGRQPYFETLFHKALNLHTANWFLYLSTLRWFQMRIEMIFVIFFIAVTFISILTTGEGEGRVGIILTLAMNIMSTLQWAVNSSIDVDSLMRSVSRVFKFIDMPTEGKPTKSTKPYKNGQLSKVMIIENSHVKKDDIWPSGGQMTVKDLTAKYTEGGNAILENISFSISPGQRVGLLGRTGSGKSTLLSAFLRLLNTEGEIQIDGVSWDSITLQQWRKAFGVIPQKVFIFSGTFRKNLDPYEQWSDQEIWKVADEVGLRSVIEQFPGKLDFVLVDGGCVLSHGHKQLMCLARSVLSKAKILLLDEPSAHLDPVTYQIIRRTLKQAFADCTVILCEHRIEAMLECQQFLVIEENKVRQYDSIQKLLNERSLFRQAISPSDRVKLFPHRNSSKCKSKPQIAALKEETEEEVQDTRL

| SMILES | % Activation | EC50 |
| --- | --- | --- |
| Nc1cc(S(=O)(=O)c2ccc(OC(F)(F)F)cc2)cnc1-c1nnc(COC(F)F)s1 [Compound 30, 2-{5-[(difluoromethoxy)methyl]-1,3,4-thiadiazol-2-yl}-5-[4-(trifluoromethoxy)benzene-1-sulfonyl]pyridin-3-amine] | 94.98% | 3.61 nM |
| CO[C@H](C)c1nnc(-c2ncc(S(=O)(=O)c3ccc(OC(F)(F)F)cc3)cc2N)s1 [Compound 21, 2-{5-[(1R)-1-methoxyethyl]-1,3,4-thiadiazol-2-yl}-5-[4-(trifluoromethoxy)benzene-1-sulfonyl]pyridin-3-amine] | 109.42% | 8.54 nM |
| C[C@@](O)(c1nnc(-c2ncc(S(=O)(=O)c3ccc(OC(F)(F)F)cc3)cc2N)s1)C(F)(F)F [Compound 20, (2S)-2-(5-{3-amino-5-[4-(trifluoromethoxy)benzene-1-sulfonyl]pyridin-2-yl}-1,3,4-thiadiazol-2-yl)-1,1,1-trifluoropropan-2-ol] | 97.45% | 8.12 nM |
| Nc1cc(S(=O)(=O)c2ccc(OC(F)(F)F)cc2)cnc1-c1nc(C2CCOC2)no1 (centres unmarked) [Compound 53, 2-[3-(oxolan-3-yl)-1,2,4-oxadiazol-5-yl]-5-[4-(trifluoromethoxy)benzene-1-sulfonyl]pyridin-3-amine] | 15.28% | > 4990 nM |
| COCc1nnc(-c2ncc(S(=O)(=O)c3ccc(OC(F)(F)F)cc3)cc2N)o1 [Compound 37, 2-[5-(methoxymethyl)-1,3,4-oxadiazol-2-yl]-5-[4-(trifluoromethoxy)benzene-1-sulfonyl]pyridin-3-amine] | 119.85% | 28.7 nM |
| Nc1cc(S(=O)(=O)c2ccc(OC(F)(F)F)cc2)cnc1-c1nnc(COC(F)(F)F)o1 [Compound 15, 5-[4-(trifluoromethoxy)benzene-1-sulfonyl]-2-{5-[(trifluoromethoxy)methyl]-1,3,4-oxadiazol-2-yl}pyridin-3-amine] | 113.65% | 6.94 nM |
| CC(C)c1ccccc1S(=O)(=O)c1cnc(-c2nnc(CO)o2)c(N)c1 [Compound 65, (5-{3-amino-5-[2-(propan-2-yl)benzene-1-sulfonyl]pyridin-2-yl}-1,3,4-oxadiazol-2-yl)methanol] | 106.55% | < 1.05 nM |
| Nc1cc(S(=O)(=O)c2ccc(OC(F)(F)F)cc2)cnc1-c1nnc(C[C@@H]2CCCO2)s1 [Compound 31, 2-(5-{[(2S)-oxolan-2-yl]methyl}-1,3,4-thiadiazol-2-yl)-5-[4-(trifluoromethoxy)benzene-1-sulfonyl]pyridin-3-amine] | 102.85% | 36.9 nM |
| Nc1cc(S(=O)(=O)c2ccc(OC(F)(F)F)cc2)cnc1-c1nnc([C@@H](O)c2ccccc2)o1 [Compound 45, (S)-(5-{3-amino-5-[4-(trifluoromethoxy)benzene-1-sulfonyl]pyridin-2-yl}-1,3,4-oxadiazol-2-yl)(phenyl)methanol] | 109.25% | 1.13 nM |
| COCCc1noc(-c2ncc(S(=O)(=O)c3ccc(OC(F)(F)F)cc3)cc2N)n1 [Compound 55, 2-[3-(2-methoxyethyl)-1,2,4-oxadiazol-5-yl]-5-[4-(trifluoromethoxy)benzene-1-sulfonyl]pyridin-3-amine] | 2.76% | > 4990 nM |
| Nc1cc(S(=O)(=O)c2ccc(OC(F)(F)F)cc2)c(Br)nc1-c1nnc(CO)o1 [Compound 63, (5-{3-amino-6-bromo-5-[4-(trifluoromethoxy)benzene-1-sulfonyl]pyridin-2-yl}-1,3,4-oxadiazol-2-yl)methanol] | 109.95% | < 0.39 nM |
| COCc1nnc(-c2ncc(S(=O)(=O)c3ccc(OC(F)(F)F)cc3)cc2N)s1 [Compound 26, 2-[5-(methoxymethyl)-1,3,4-thiadiazol-2-yl]-5-[4-(trifluoromethoxy)benzene-1-sulfonyl]pyridin-3-amine] | 101.69% | 3.33 nM |
| Nc1cc(S(=O)(=O)c2ccccc2OC(F)(F)F)cnc1-c1nnc(CO)o1 [Compound 59, (5-{3-amino-5-[2-(trifluoromethoxy)benzene-1-sulfonyl]pyridin-2-yl}-1,3,4-oxadiazol-2-yl)methanol] | 106.56% | 4.25 nM |
| Nc1cc(S(=O)(=O)c2ccc(OC(F)(F)F)cc2)cnc1-c1nnc(COC2CCOC2)o1 (centres unmarked) [Compound 16, 2-(5-{[(oxolan-3-yl)oxy]methyl}-1,3,4-oxadiazol-2-yl)-5-[4-(trifluoromethoxy)benzene-1-sulfonyl]pyridin-3-amine] | 110.75% | 78.1 nM |
| CO[C@@H](c1ccccc1)c1nnc(-c2ncc(S(=O)(=O)c3ccc(OC(F)(F)F)cc3)cc2N)o1 [Compound 11, 2-{5-[(S)-methoxy(phenyl)methyl]-1,3,4-oxadiazol-2-yl}-5-[4-(trifluoromethoxy)benzene-1-sulfonyl]pyridin-3-amine] | 109.82% | 35.1 nM |

The remaining lines, values ahead:

| % Activation | EC50 | SMILES |
| --- | --- | --- |
| 104.65% | 96.7 nM | Nc1cc(S(=O)(=O)c2ccc(F)cc2)cnc1-c1nnc(CO)o1 [Compound 9, {5-[3-amino-5-(4-fluorobenzene-1-sulfonyl)pyridin-2-yl]-1,3,4-oxadiazol-2-yl}methanol] |
| 100.57% | 327 nM | Nc1cc(S(=O)(=O)c2ccc(OC(F)(F)F)cc2)cnc1-c1nnc(COc2ccccc2)o1 [Compound 13, 2-[5-(phenoxymethyl)-1,3,4-oxadiazol-2-yl]-5-[4-(trifluoromethoxy)benzene-1-sulfonyl]pyridin-3-amine] |
| 113% | < 0.44 nM | Nc1cc(S(=O)(=O)c2ccc(C(F)(F)F)cc2)cnc1-c1nnc(CO)s1 [Compound 62, (5-{3-amino-5-[4-(trifluoromethyl)benzene-1-sulfonyl]pyridin-2-yl}-1,3,4-thiadiazol-2-yl)methanol] |
| 29.2% | > 3320 nM | Nc1cc(S(=O)(=O)c2ccc(OC(F)(F)F)cc2)cnc1-c1nc(COc2ccc(F)cc2)no1 [Compound 49, 2-{3-[(4-fluorophenoxy)methyl]-1,2,4-oxadiazol-5-yl}-5-[4-(trifluoromethoxy)benzene-1-sulfonyl]pyridin-3-amine] |
| 102.19% | 21.3 nM | CO[C@H](C)c1nnc(-c2ncc(S(=O)(=O)c3ccc(OC(F)(F)F)cc3)cc2N)o1 [Compound 34, 2-{5-[(1R)-1-methoxyethyl]-1,3,4-oxadiazol-2-yl}-5-[4-(trifluoromethoxy)benzene-1-sulfonyl]pyridin-3-amine] |
| 50.3% |  | Nc1cc(S(=O)(=O)c2ccc(OC(F)(F)F)cc2)cnc1-c1nnc(COC(F)(F)F)s1 [Compound 28, 5-[4-(trifluoromethoxy)benzene-1-sulfonyl]-2-{5-[(trifluoromethoxy)methyl]-1,3,4-thiadiazol-2-yl}pyridin-3-amine] |
| 93.73% | 300 nM | NC(=O)c1nnc(-c2ncc(S(=O)(=O)c3ccc(OC(F)(F)F)cc3)cc2N)o1 [Compound 8, 5-{3-amino-5-[4-(trifluoromethoxy)benzene-1-sulfonyl]pyridin-2-yl}-1,3,4-oxadiazole-2-carboxamide] |
| 96.97% | 41.3 nM | Nc1cc(S(=O)(=O)c2ccc(OC(F)(F)F)cc2)cnc1-c1nnc(C[C@H]2CCCO2)o1 [Compound 41, 2-(5-{[(2R)-oxolan-2-yl]methyl}-1,3,4-oxadiazol-2-yl)-5-[4-(trifluoromethoxy)benzene-1-sulfonyl]pyridin-3-amine] |
| 97.36% | 97.4 nM | Nc1cc(S(=O)(=O)c2ccccc2)cnc1-c1nnc(CO)o1 [Compound 61, {5-[3-amino-5-(benzenesulfonyl)pyridin-2-yl]-1,3,4-oxadiazol-2-yl}methanol] |
| 3.42% | > 4990 nM | Nc1cc(S(=O)(=O)c2ccc(OC(F)(F)F)cc2)cnc1-c1nc(C2CC2)no1 [Compound 52, 2-(3-cyclopropyl-1,2,4-oxadiazol-5-yl)-5-[4-(trifluoromethoxy)benzene-1-sulfonyl]pyridin-3-amine] |
| 106.2% | 9.09 nM | Nc1cc(S(=O)(=O)c2ccc(OC(F)(F)F)cc2)cnc1-c1nnc(CNC(=S)C2CC2)s1 [Compound 18, N-[(5-{3-amino-5-[4-(trifluoromethoxy)benzene-1-sulfonyl]pyridin-2-yl}-1,3,4-thiadiazol-2-yl)methyl]cyclopropanecarbothioamide] |
| 104.91% | 3.51 nM | Nc1cc(S(=O)(=O)c2cccc(OC(F)(F)F)c2)cnc1-c1nnc(CO)o1 [Compound 58, (5-{3-amino-5-[3-(trifluoromethoxy)benzene-1-sulfonyl]pyridin-2-yl}-1,3,4-oxadiazol-2-yl)methanol] |
